Test in all cases: cells
Common to all, as to assay type: cell-based

One experiment deals with MES SA. To be noted: Homo sapiens, 72 h, read-out: MES SA IC50 nM.
The subject of another experiment is MES SA DX. Particulars: Homo sapiens, 72 h, read-out: MES SA DX IC50 nM.
The test system of the next experiment is 293T. Particulars: Homo sapiens, HEK-293T, 72 h, read-out: 293T IC50 nM.

Our source for the IC50 values is patent US10899773B2 (priority 2014, dated 2021).

Structures are written as SMILES.

A word on the IC50: it is the concentration that inhibits the measured activity by half. As for `COc1c2c(c(O)c3c4c(c(C)cc13)C1C3OC5(C(OC)OC)OC15[C@]1(CO1)[C@]3(O)O4)C(=O)[C@@H](O)C[C@@H]2OC1CC(C)(O)C(OC(C)=O)C(C)O1` (stereo partly drawn) [Trox12], the IC50 with MES SA is 18.1 nM; in the experiment on MES SA DX, over 1000 nM; with 293T, 14.9 nM.
The matching figures for `COc1c2c(c(O)c3c4c(c(C)cc13)C1C3OC5(C(OC)OC)OC15[C@]1(CO1)[C@]3(OC1CC(O)C(O)(C(C)=O)C(C)O1)O4)C(=O)[C@@H](O)C[C@@H]2OC1CC(C)(O)C(OC(C)=O)C(C)O1` (stereo partly drawn) [Trox13]: 0.74 nM, 204 nM and 0.702 nM.
The matching figures for `COc1c2c(c(O)c3c4c(c(C)cc13)C1C3OC5(C(OC)OC)OC15[C@]1(CO1)[C@]3(OC1CC(O)C(O)(C(C)=O)C(C)O1)O4)C(=O)[C@@H](O)C[C@@H]2OC1CC(C)(O)C(O)C(C)O1` (stereo partly drawn) [Trox14]: 11.1 nM, over 1000 nM and 8.02 nM.
The matching figures for `COc1c2c(c(O)c3c4c(c(C)cc13)C1C3OC5(C(OC)OC)OC15[C@]1(CO1)[C@]3(OC1CC(OC(C)=O)C(O)(C(C)=O)C(C)O1)O4)C(=O)[C@@H](O)C[C@@H]2O` (stereo partly drawn) [Trox15]: 157 nM, over 1000 nM and 95.4 nM.
For the molecule `COc1c2c(c(O)c3c4c(c(C)cc13)C1C3OC5(C(OC)OC)OC15[C@]1(CO1)[C@]3(OC1CC(OC(C)=O)C(O)(C(C)=O)C(C)O1)O4)C(=O)[C@@H](O)C[C@@H]2OC1CC(C)(O)C(OC(C)=O)C(C)O1` (stereo partly drawn) [Trox16], the values for the IC50 in the experiment on MES SA, with MES SA DX and in the experiment on 293T were 2.02 nM, over 1000 nM and 2.81 nM, respectively.
